Test results as given in paper PMC6842527, “Molecular cloning and metabolomic characterization of the 5-enolpyruvylshikimate-3-phosphate synthase gene from Baphicacanthus cusia” (BMC Plant Biology, 2019).

Target: T1, BcEPSPS (5-enolpyruvylshikimate-3-phosphate synthase)
T1 construct: gene EPSPS; full-length coding region (518 aa) in pET-32a, His-tagged fusion BcEPSPS-His, expressed in E. coli BL21
Assay: malachite green phosphate-release enzyme assay with purified recombinant BcEPSPS; Ki at […] S3P (IC50 […] also reported)
Format: biochemical, Baphicacanthus cusia

O=C(O)CNCP(=O)(O)O [glyphosate]
Ki: 46 nM
